Measured values: patent US12077503B2, “Substituted cyclic amides and their use as herbicides” (FMC CORPORATION, priority 2015, dated 2024)

Columns and labels:
[1] = test system: green foxtail (Setaria viridis); assay: Test A preemergence; format: in vivo; settings: for Foxtail, Green plant response rating: 0 to 100 scale where 0 is no effect and 100 is complete control
In short: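 Seeded soil received test chemicals as a preemergence directed spray, and seedlings at one to two leaves, 2–10 cm tall, received them postemergence, in a non-phytotoxic, surfactant-containing solvent mixture. Pots were held in a greenhouse for approximately 10 d, then rated for injury from 0, no effect, to 100, complete control.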

[2] = 125 g ai/ha, preemergence, approx. 10 d

Compound	melting point [°C]	also measured
CN1C[C@H](c2csc3c2CCC(F)(F)C3)[C@@H](C(=O)Nc2ccccc2S(C)(=O)=O)C1=O (racemic) [Compound 1367]		Foxtail, Green plant response rating ([1]; 31 g ai/ha, Preemergence): 0; Plant response rating, Foxtail, Green ([1]; Preemergence, 125 g ai/ha, 0 to 100 scale (0 no effect, 100 complete control)): 60
CN1C[C@H](c2ccc(C(F)(F)F)cc2)[C@@H](C(=O)Nc2ccccc2Br)C1=O [Compound 943]	104 to 107	
CSc1ccccc1NC(=O)[C@H]1C(=O)NC[C@@H]1c1ccc(C(F)(F)F)cn1 [Compound 1050]	66 to 70	
CN1C[C@H](c2ccc(C(F)(F)F)cn2)[C@@H](C(=O)Nc2cccc(F)c2F)C1=O [Compound 1052]	120 to 124	
COc1cccc([C@H]2CNC(=O)[C@@H]2C(=O)Nc2cccc(F)c2F)c1F [Compound 1061]	161 to 165	
COc1cccc([C@H]2CN(C)C(=O)[C@@H]2C(=O)Nc2cccc(F)c2F)c1 [Compound 1062]		Foxtail, Green plant response rating ([1]; 31 g ai/ha, Preemergence): 100; Foxtail, Green plant response rating [1, 2]: 100
COc1cccc([C@H]2CN(C)C(=O)[C@@H]2C(=O)Nc2ccc(F)c(F)c2F)c1 [Compound 1063]		Foxtail, Green plant response rating ([1]; 31 g ai/ha, Preemergence): 100; Foxtail, Green plant response rating [1, 2]: 100
O=C1NC[C@H](c2ccc(C(F)(F)F)cn2)[C@H]1C(=O)Nc1ccc(F)c(F)c1F [Compound 1105]	173 to 176	
C=C(C)c1ccc([C@H]2CN(C)C(=O)[C@@H]2C(=O)Nc2cccc(F)c2C)cc1 [Compound 1150]	137 to 141	
CN1C[C@H](c2cc(Cl)cc(Cl)c2)[C@@H](C(=O)Nc2cccc(F)c2F)C1=O [Compound 1270]	88 to 92	
O=C1NC[C@H](c2cc(Cl)cc(Cl)c2)[C@H]1C(=O)Nc1cccc(F)c1F [Compound 1273]	136 to 140	
COc1ccc([C@H]2CN(C)C(=O)[C@@H]2C(=O)Nc2ccccc2F)cc1 [Compound 1342]	103 to 107	
